Results published in patent US12351576B2, “FGFR inhibitor, preparation method therefor and application thereof” (Abbisko Therapeutics Co., Ltd., priority 2018, dated 2025).

Tests used:
[1] = molecular target: FGFR1 (Homo sapiens (Human), UniProt P11362); assay: In vitro biochemical kinase assay (Caliper Assay), FGFR1; details: enzyme 0.25 nM, ATP 382 μM, 20 minutes; read-out: Enzymatic activity IC50(nM) FGFR1
Method: (§1) I. In Vitro Biochemical Kinase Assay of FGFR 1˜3
(§2) Caliper Assay was used in the present invention to determine the inhibitory activities of the compounds against FGFR1, FGFR2, and FGFR3. The specific experimental procedure was as follows: • 1. The kinase reaction in the present invention was carried out in 384-well plates, the kinase(Carna) at a certain concentration and ATP at a certain concentration and 1 μM of peptide FAM-P22 (GL Biochem, Cat. No. 112393)) was incubated to react for a certain time at 28° C. in a reaction system consisting of 50 mM HEPES, […], 0.0015% Brij-35 and basic kinase buffer; for FGFR1, the enzyme concentration was 0.25 nM and ATP concentration was 382 μM and the reaction time was 20 minutes; for FGFR2, the enzyme concentration was 2.5 nM, ATP concentration was 1 μM, and the reaction time was 40 minutes; for FGFR3, the enzyme concentration was 8 nM, ATP concentration was 4.7 μM, and the reaction time was 30 minutes: • 2. The reaction was terminated with a stop solution (100 mM HEPES, pH 7.5, 0.2% Caliper coating, reagent, 50 mM EDTA and 0.015% Brij35); • 3. The plate with the terminated kinase reaction was transferred to the Caliper workstation to read the data; • 4. the phosphorylated and unphosphorylated peptides were separated by the Caliper microfluid migration shift technique, and the analyte was transferred by a constant buffer flow through the chip, the migration of the substrate peptide was monitored by the labeled fluorescent signal, and the kinase activity was calculated by the amount of the phosphate-based peptide formed. • 5. IC50 was determined by non-linear regression analysis of percent inhibition at different concentration level of the compound.

[2] = molecular target: FGFR2 (Homo sapiens (Human), UniProt P21802); assay: In vitro biochemical kinase assay (Caliper Assay), FGFR2; details: enzyme 2.5 nM, ATP 1 μM, 40 minutes; read-out: Enzymatic activity IC50(nM) FGFR2
Method: as §1, §2

[3] = tested on: H1581 lung cancer cells (FGFR1 gene amplification); assay: Cell proliferation assay (Cell Titer Glo), H1581; assay type: cell-based; details: Homo sapiens, NCI-H1581, 72 h, 3 days, CTG, read-out: Cellular IC50 (nM) H1581
Method: (§3) II. Cell Proliferation Assay (Cell Titer Glo(CTG) Assay)
(§4) The FGFR signal pathway dependent inhibitory effect of the compound in the present invention on cell proliferation was assessed by survival test using CTG reagent (Promega, 4G7573). Cell lines representative of a variety of tumor types, including H1581 lung cancer cells (FGFR1 gene amplification), Snu-16 gastric cancer cells (FGFR2 gene amplification), and RT112 bladder carcinoma cells (FGFR3-TACC3 fusion) from Nanjing Cobioer Biosciences, were selected for the assay. The specific experimental procedure was as follows: • 1. 90 μL of cells were seeded into a 96-well plate processed with TCM (Costar 43904), and incubated overnight at 37° C. in a 5% CO2 incubator; afterwards, 10 μL of the culture medium containing the compound at 10 fold of its final concentration was added; • 2. The dose-dependent effect was evaluated by a serial dilution of the test compound, starting from 10 μM or a lower concentration. • 3. The cells were incubated at 37° C. under 5% C02 for 3 days, then added 50 μL CTG, and read the data with Envision (Pelkin Elmer) to quantify the ATP level in the cells. The ATP levels in cells with treatment of inhibitor at a variety of concentrations were compared with those in cells of the control group (in which DMSO was added into the medium) to evaluate the compound percent inhibition of cell proliferation/survival. • 4. The compound half growth inhibitory concentration (IC50) was determined in Graphpad Prism by 4-parameter curve fitting.

[4] = tested on: Snu-16 gastric cancer cells (FGFR2 gene amplification); assay: Cell proliferation assay (Cell Titer Glo), Snu-16; assay type: cell-based; details: Homo sapiens, SNU-16, 72 h, Snu-16 cells, 3 days, CTG; read-out: Cellular IC50 (nM) Sun16
Method: as §3, §4

Chain of FGFR1 (P11362 22-822): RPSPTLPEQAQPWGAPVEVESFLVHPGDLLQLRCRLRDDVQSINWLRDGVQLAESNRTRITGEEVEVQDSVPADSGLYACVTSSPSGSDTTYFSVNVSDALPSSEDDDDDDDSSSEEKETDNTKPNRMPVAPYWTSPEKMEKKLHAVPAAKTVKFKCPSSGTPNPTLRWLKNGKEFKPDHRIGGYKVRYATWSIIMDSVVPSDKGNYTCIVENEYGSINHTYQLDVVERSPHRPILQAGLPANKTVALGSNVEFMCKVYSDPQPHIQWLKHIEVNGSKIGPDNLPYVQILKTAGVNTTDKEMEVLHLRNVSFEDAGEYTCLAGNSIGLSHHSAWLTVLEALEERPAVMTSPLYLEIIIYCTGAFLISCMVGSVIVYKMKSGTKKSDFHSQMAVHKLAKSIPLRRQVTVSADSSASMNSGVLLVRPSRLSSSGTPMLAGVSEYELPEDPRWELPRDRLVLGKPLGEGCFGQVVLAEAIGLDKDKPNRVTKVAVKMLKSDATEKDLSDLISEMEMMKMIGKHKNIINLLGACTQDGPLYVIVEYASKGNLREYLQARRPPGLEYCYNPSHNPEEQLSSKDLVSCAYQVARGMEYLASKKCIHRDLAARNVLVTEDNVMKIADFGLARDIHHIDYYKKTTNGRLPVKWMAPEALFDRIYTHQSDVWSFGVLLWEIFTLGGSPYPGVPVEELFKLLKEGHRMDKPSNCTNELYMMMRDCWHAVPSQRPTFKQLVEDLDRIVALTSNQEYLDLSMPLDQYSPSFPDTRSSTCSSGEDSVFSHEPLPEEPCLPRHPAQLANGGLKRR
Chain of FGFR2 (P21802 22-821): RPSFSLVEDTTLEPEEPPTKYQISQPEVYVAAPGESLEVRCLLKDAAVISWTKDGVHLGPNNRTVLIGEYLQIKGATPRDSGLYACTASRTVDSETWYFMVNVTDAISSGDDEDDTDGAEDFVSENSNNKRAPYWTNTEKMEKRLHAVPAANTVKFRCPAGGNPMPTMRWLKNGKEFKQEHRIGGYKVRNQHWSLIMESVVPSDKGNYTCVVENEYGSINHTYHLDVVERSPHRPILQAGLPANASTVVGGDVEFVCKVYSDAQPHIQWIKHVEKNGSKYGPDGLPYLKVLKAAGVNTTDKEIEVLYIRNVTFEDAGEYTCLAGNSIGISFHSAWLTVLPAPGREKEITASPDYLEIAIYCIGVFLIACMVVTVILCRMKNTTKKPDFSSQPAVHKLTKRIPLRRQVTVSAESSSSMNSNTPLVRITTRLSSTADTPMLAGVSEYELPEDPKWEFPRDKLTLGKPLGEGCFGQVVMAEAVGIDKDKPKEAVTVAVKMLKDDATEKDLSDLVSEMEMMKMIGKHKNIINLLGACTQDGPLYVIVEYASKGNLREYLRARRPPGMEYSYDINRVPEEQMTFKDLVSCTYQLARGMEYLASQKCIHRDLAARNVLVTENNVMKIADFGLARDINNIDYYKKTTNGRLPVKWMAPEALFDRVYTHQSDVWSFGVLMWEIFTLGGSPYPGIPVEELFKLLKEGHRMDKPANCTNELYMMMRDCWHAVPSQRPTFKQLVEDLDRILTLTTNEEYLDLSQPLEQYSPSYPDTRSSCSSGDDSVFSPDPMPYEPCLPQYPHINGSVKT

| Compound | IC50 [1] | IC50 [2] | IC50 [3] | IC50 [4] |
| --- | --- | --- | --- | --- |
| CCn1c(=O)c(-c2c(Cl)c(OC)cc(OC)c2Cl)cc2cnc(-c3cnn(C)c3)cc21 [Example 1, 3-(2,6-dichloro-3,5-dimethoxyphenyl)-1-ethyl-7-(1-methyl-1H-pyrazol-4-yl)-1,6-naphthyridin-2(1H)-one] | 10 to 50 nM | ≤ 5 nM |  |  |
| COc1cc(OC)c(Cl)c(-c2cc3cnc(-c4cnn(C)c4)cc3n(C(C)C)c2=O)c1Cl [Example 3, 3-(2,6-dichloro-3,5-dimethoxyphenyl)-1-isopropyl-7-(1-methyl-1H-pyrazol-4-yl)-1,6-naphthyridin-2(1H)-one] | 5 to 10 nM | ≤ 5 nM |  |  |
| CCn1c(=O)c(-c2c(Cl)c(OC)cc(OC)c2Cl)cc2cnc(-c3cn(C)nc3C)cc21 [Example 9, 3-(2,6-dichloro-3,5-dimethoxyphenyl)-7-(1,3-dimethyl-1H-pyrazol-4-yl)-1-ethyl-1,6-naphthyridin-2(1H)-one] | 10 to 50 nM | ≤ 5 nM |  |  |
| CCn1c(=O)c(-c2c(Cl)c(OC)cc(OC)c2Cl)cc2cnc(-c3ccc(C4(C#N)CCC4)nc3)cc21 [Example 12, 1-(5-(3-(2,6-dichloro-3,5-dimethoxyphenyl)-1-ethyl-2-oxo-1,2-dihydro-1,6-naphthyridin-7-yl)pyridin-2-yl)cyclobutane-1-carbonitrile] |  |  | > 500 nM | 50 to 500 nM |
| COc1cc(OC)c(Cl)c(-c2cc3cnc(-c4ccc(C5(C#N)CCC5)nc4)cc3n(C)c2=O)c1Cl [Example 20, 1-(5-(3-(2,6-dichloro-3,5-dimethoxyphenyl)-1-methyl-2-oxo-1,2-dihydro-1,6-naphthyridin-7-yl)pyridin-2-yl)cyclobutane-1-carbonitrile] |  |  | > 500 nM | 50 to 500 nM |
| COc1cc(OC)c(F)c(-c2cc3cnc(-c4cnccc4C)cc3n(C3CCOC3)c2=O)c1F (centres unmarked) [Example 37, 3-(2,6-difluoro-3,5-dimethoxyphenyl)-7-(4-methylpyridin-3-yl)-1-(tetrahydrofuran-3-yl)-1,6-naphthyridin-2(1H)-one] |  |  | > 500 nM | 50 to 500 nM |
| CCn1c(=O)c(-c2c(Cl)c(OC)cc(OC)c2Cl)cc2cnc(-c3cnn(CCN4CCOCC4)c3C)cc21 [Example 49, 3-(2,6-dichloro-3,5-dimethoxyphenyl)-1-ethyl-7-(5-methyl-1-(2-morpholinoethyl)-1H-pyrazol-4-yl)-1,6-naphthyridin-2(1H)-one] |  |  | 50 to 500 nM | 50 to 500 nM |
| CCn1c(=O)c(-c2c(Cl)c(OC)cc(OC)c2Cl)cc2cnc(-c3cnn(CC#N)c3C)cc21 [Example 50, 2-(4-(3-(2,6-dichloro-3,5-dimethoxyphenyl)-1-ethyl-2-oxo-1,2-dihydro-1,6-naphthyridin-7-yl)-5-methyl-1H-pyrazol-1-yl)acetonitrile] |  |  | > 500 nM | > 500 nM |
| CCn1c(=O)c(-c2c(Cl)c(OC)cc(OC)c2Cl)cc2cnc(-c3cnn(CCC#N)c3C)cc21 [Example 51, 3-(4-(3-(2,6-dichloro-3,5-dimethoxyphenyl)-1-ethyl-2-oxo-1,2-dihydro-1,6-naphthyridin-7-yl)-5-methyl-1H-pyrazol-1-yl)propanenitrile] |  |  | > 500 nM | 50 to 500 nM |
| CCn1c(=O)c(-c2c(Cl)c(OC)cc(OC)c2Cl)cc2cnc(-c3cnn(CCN(C)C)c3C)cc21 [Example 52, 3-(2,6-dichloro-3,5-dimethoxyphenyl)-7-(1-(2-(dimethylamino)ethyl)-5-methyl-1H-pyrazol-4-yl)-1-ethyl-1,6-naphthyridin-2(1H)-one] |  |  | > 500 nM | 50 to 500 nM |

More lines, now with the values ahead:

| IC50 [1] | IC50 [2] | IC50 [3] | IC50 [4] | Compound |
| --- | --- | --- | --- | --- |
|  |  | 50 to 500 nM | 5 to 10 nM | COc1cc(OC)c(Cl)c(-c2cc3cnc(-c4cnn(C)c4)cc3n(C3CCOCC3)c2=O)c1Cl [Example 17, 3-(2,6-dichloro-3,5-dimethoxyphenyl)-7-(1-methyl-1H-pyrazol-4-yl)-1-(tetrahydro-2H-pyran-4-yl)-1,6-naphthyridin-2(1H)-one] |
|  |  | 50 to 500 nM | 10 to 50 nM | COc1cc(OC)c(Cl)c(-c2cc3cnc(-c4cnn(C)c4)cc3n(C3CCOC3)c2=O)c1 (centres unmarked) [Example 24, 3-(2-chloro-3,5-dimethoxyphenyl)-7-(1-methyl-1H-pyrazol-4-yl)-1-(tetrahydrofuran-3-yl)-1,6-naphthyridin-2(1H)-one] |
|  |  | 10 to 50 nM | 10 to 50 nM | COc1cc(OC)c(F)c(-c2cc3cnc(-c4cnn(C)c4)cc3n(C(C)C)c2=O)c1F [Example 26, 3-(2,6-difluoro-3,5-dimethoxyphenyl)-1-isopropyl-7-(1-methyl-1H-pyrazol-4-yl)-1,6-naphthyridin-2(1H)-one] |
|  |  | 50 to 500 nM | 10 to 50 nM | COc1cc(OC)c(F)c(-c2cc3cnc(-c4cnn(CCN5CCOCC5)c4)cc3n(CC3CC3)c2=O)c1F [Example 31, 1-(cyclopropylmethyl)-3-(2,6-difluoro-3,5-dimethoxyphenyl)-7-(1-(2-morpholinoethyl)-1H-pyrazol-4-yl)-1,6-naphthyridin-2(1H)-one] |
|  |  | 50 to 500 nM | 10 to 50 nM | COc1cc(OC)c(F)c(-c2cc3cnc(-c4cccnc4)cc3n(C3CCOC3)c2=O)c1F (centres unmarked) [Example 36, 3-(2,6-difluoro-3,5-dimethoxyphenyl)-7-(pyridin-3-yl)-1-(tetrahydrofuran-3-yl)-1,6-naphthyridin-2(1H)-one] |
|  |  | 10 to 50 nM | ≤ 5 nM | COc1cc(OC)c(F)c(-c2cc3cnc(-c4ccc(N5CC6CC5CO6)nc4)cc3n(C3CCOC3)c2=O)c1F (centres unmarked) [Example 38, 7-(6-(2-oxa-5-azabicyclo[2.2.1]heptan-5-yl)pyridin-3-yl)-3-(2,6-difluoro-3,5-dimethoxyphenyl)-1-(tetrahydrofuran-3-yl)-1,6-naphthyridin-2(1H)-one] |
|  |  | 50 to 500 nM | 50 to 500 nM | COc1cc(OC)c(F)c(-c2cc3cnc(-c4ccncc4)cc3n(C3CCOC3)c2=O)c1F (centres unmarked) [Example 39, 3-(2,6-difluoro-3,5-dimethoxyphenyl)-7-(pyridin-4-yl)-1-(tetrahydrofuran-3-yl)-1,6-naphthyridin-2(1H)-one] |
|  |  | 50 to 500 nM | 50 to 500 nM | COc1cc(OC)c(F)c(-c2cc3cnc(-c4ccc(CC#N)cc4)cc3n(C3CCOC3)c2=O)c1F (centres unmarked) [Example 41, 2-(4-(3-(2,6-difluoro-3,5-dimethoxyphenyl)-2-oxo-1-(tetrahydrofuran-3-yl)-1,2-dihydro-1,6-naphthyridin-7-yl)phenyl)acetonitrile] |
|  |  | 50 to 500 nM | 10 to 50 nM | CCn1c(=O)c(-c2c(Cl)c(OC)cc(OC)c2Cl)cc2cnc(-c3cn(CCN4CCOCC4)nc3C)cc21 [Example 42, 3-(2,6-dichloro-3,5-dimethoxyphenyl)-1-ethyl-7-(3-methyl-1-(2-morpholinoethyl)-1H-pyrazol-4-yl)-1,6-naphthyridin-2(1H)-one] |
|  |  | 50 to 500 nM | 50 to 500 nM | CCn1c(=O)c(-c2c(Cl)c(OC)cc(OC)c2Cl)cc2cnc(-c3cn(CCC#N)nc3C)cc21 [Example 44, 3-(4-(3-(2,6-dichloro-3,5-dimethoxyphenyl)-1-ethyl-2-oxo-1,2-dihydro-1,6-naphthyridin-7-yl)-3-methyl-1H-pyrazol-1-yl)propanenitrile] |
|  |  | 50 to 500 nM | 10 to 50 nM | CCn1c(=O)c(-c2c(Cl)c(OC)cc(OC)c2Cl)cc2cnc(-c3cn(CCN(C)C)nc3C)cc21 [Example 45, 3-(2,6-dichloro-3,5-dimethoxyphenyl)-7-(1-(2-(dimethylamino)ethyl)-3-methyl-1H-pyrazol-4-yl)-1-ethyl-1,6-naphthyridin-2(1H)-one] |
|  |  | 50 to 500 nM | 50 to 500 nM | COc1cc(OC)c(Cl)c(-c2cc3cnc(-c4cn(CCN5CCOCC5)nc4C)cc3n(C)c2=O)c1Cl [Example 47, 3-(2,6-dichloro-3,5-dimethoxyphenyl)-1-methyl-7-(3-methyl-1-(2-morpholinoethyl)-1H-pyrazol-4-yl)-1,6-naphthyridin-2(1H)-one] |
